In article PMC10525854 (Biomedicines, 2023):
Converted amounts (≈) assume the structure as drawn.

What was measured:
[1] = system: A375 human melanoma cell lines; assay: Cytotoxicity SRB assay; format: cell-based; conditions: A-375, 48 h of incubation (method says 72 h)
Method: Cell viability was assessed by SRB assay as reported [47]. […] Melanoma cells were mixed with TCA (10%) and maintained at 4 °C for 1 h, then washed with D.W. Sulforhodamine B (70 μL) (0.4% w/v) was added and kept for 10 min. Plates were washed by 1% acetic acid 3 times and left to dry overnight. TRIS (150 μL) was added to dissolve the protein-bound SRB stain. Lastly, absorbance was determined by a star Omega microplate reader (BMGLABTECH®-FLUO, Ortenberg, Germany) at 540 nm [48, 49]. Cytotoxicity was expressed as (IC50), which was determined by plotting %viability against the concentration of the drug (five concentrations were used). IC50 values were calculated from the dose–response curve by the PRISM program.

[2] = Solubility of ACF in different media; format: physicochemical; conditions: thermodynamic from solid
Method: The mixture was shaken using a vortex mixer (Heidolph Instrument, D-91126 Schwabach, type RZR 2021, Bavaria, Germany) for 15 min, followed by storage at room temperature. After 24 h, the resulting solution was subjected to centrifugation at 3000 rpm for 5 min to separate the clear supernatant. A suitable sample solution was collected and diluted with absolute methanol. The diluted sample was filtered using Whatman 102 filter paper and further diluted with absolute methanol for the determination of the drug concentration in the saturated solution. Analysis of the samples was performed using a UV spectrophotometer (DU 640; Beckman, CA, USA) at a wavelength of 276 nm, with methanol as the blank reference.

For O=C(O)COC(=O)Cc1ccccc1Nc1c(Cl)cccc1Cl [ACF, Aceclofenac], which IC50 [1] is on record?
Its IC50 is 69.3 µg/mL (≈ 0.196 mM).

And the solubility at 24 h ([2]; oil or lipid, citronellol oil, room temperature)?
The solubility at 24 h was 5.26 mg/mL (≈ 14.9 mM).

What about the solubility at 24 h ([2]; organic solvent or mixture, Transcutol HP, room temperature) of the same compound?
The solubility at 24 h was 300 mg/mL (≈ 848 mM).

And the solubility at 24 h ([2]; Tween 80, room temperature)?
Its solubility at 24 h is 62.6 mg/mL (≈ 177 mM).

And the solubility at 24 h ([2]; water, room temperature)?
Its solubility at 24 h is 0.071 mg/mL (≈ 0.2 mM).
